How the values were obtained:
Assay type in all cases: cell-based, human
[1] = tested on: LCSC6 lung cancer spheroid cells; assay: Cell viability assay (CellTiter-Glo)
Experimental: (§1) Briefly, lung and colorectal spheroids were dissociated mechanically or with TrypLE Express (Thermo Fisher Scientific) respectively and seeded 3 × 10^3 per well in 96-well plates (three replicates per experimental point) in serum-free medium, and incubated in a humidified atmosphere at 37 °C, 5% CO2. Cells were treated with the respective compounds and analysed after the appropriate time period as described in detail in Figure Legends. Luminescence was detected with a DTX880 multimode microplate reader (Beckman Coulter, Brea, CA, USA).

[2] = tested on: CSC 7 colorectal spheroid cells; assay: Cell viability assay (CellTiter-Glo)
Experimental: as §1, with “Cell viability upon treatment with NanoFEN, zVAD, NAC, 3-MA, Myriocin, PPMP, GT11, SA and Rapamycin was determined by CellTiter-Glo luminescent cell viability assay (Promega, Madison, WI, USA) according to the manufacturer’s directions. Briefly,” for “Briefly,”

[3] = tested on: LCSC2 lung cancer spheroid cells; assay: Cell viability assay (CellTiter-Glo); conditions: LCSC2, GT11 0,5µM plus SA 2µM plus Rapamycin 10nM, 48 hours
Experimental: as §1, with “Cell viability upon treatment with NanoFEN, zVAD, NAC, 3-MA, Myriocin, PPMP, GT11, SA and Rapamycin was determined by CellTiter-Glo luminescent cell viability assay (Promega, Madison, WI, USA) according to the manufacturer’s directions. Briefly,” for “Briefly,”

[4] = tested on: reactive oxygen species (ROS) in LCSC6; assay: Measurement of intracellular ROS levels (CM-H2DCFDA, flow cytometer); conditions: LCSC6, NAC 2mM for 1h, then NanoFEN 4,9µM for 48 hours
Experimental: An equal number of dissociated spheroid cells (2.5 × 10^5) were seeded in 6-well cell culture plates. Briefly, each cell line was incubated with NanoFEN at IC50 concentration and pre-treated for 1 h with the antioxidant N-Acetyl-Cysteine (NAC). At different times, the cells were washed twice with pre-warmed Phosphate Saline Buffer (PBS) and then incubated in the same buffer containing 5 μM CM-H2DCFDA with DMSO alone at 37 °C. The fluorescence intensity of DCF was measured at 527 nm emission wavelength after excitation at 492 nm at 1 h intervals for up to 48 h using a Flow Cytometer Accuri (Becton Dickinson). An increase in fluorescence intensity as arbitrary units indicated the net generation of intracellular ROS.

[5] = tested on: Aldefluor activity (ALDH) in LCSC6; assay: Cytofluorimetric analysis of Aldefluor activity; conditions: LCSC6, representative analysis; NanoFEN at IC50 dose, Gemcytabine 25 µM; CTRL 38,6%
Experimental: Values represent mean ± SD of three independent experiments. **P < 0.01; ***P < 0.001 from two-tailed t-test. d Schematic representation of stem-like factors (repressed in grey) emerged from RPPA analysis of lung CSCs treated as described in Fig. 4a. e Cytofluorimetric analysis of Aldefluor activity on LCSC6 treated with NanoFEN at IC50 dose and Gemcytabine 25 μM for 48 h. Values represent mean ± SD of three independent experiments. **P < 0.01; ***P < 0.001 from two-tailed t-test. f qRT-PCR analysis of indicated genes on whole tumor lysates derived from LCSC6 xenografts, untreated or treated with NanoFEN 30 mg/Kg/week and Cis 3 mg/Kg/week and Gem 60 mg/Kg/week (Cis + Gem). Values represent mean ± SD of three independent experiments. *P < 0.05; **P < 0.01 from two-tailed t-test. g Flow cytometry analysis of TOP-GFP.mc-transduced CSC7, untreated and treated with NanoFEN at the IC50 dose 0.2 μM and OXA 10 μM for 48 h. Values represent mean ± SD of three independent experiments. **P < 0.01 from two-tailed t-test. h Volume of xenografts derived from CSC10 transduced with TOP-GFP.mc untreated (black downward triangles) or treated with vehicle or treated NanoFEN 30 mg/Kg/week (green upward triangles) and OXA 5 mg/Kg/week plus 5FU 12.5 mg/Kg/week (red squares). […]

## Cn1cnc(N)c2ncnc1-2 [3-MA, 3-Methyladenine]
[1]; LCSC6, 3-MA 5 mM plus NanoFEN 4.9 μM, 24 h
  effect on NanoFEN-induced death (cell viability): able to counteract
[2]; CSC7, 3-MA 5 mM plus NanoFEN 0.2 μM, 24 h
  effect on NanoFEN-induced death (cell viability): able to counteract

## CO[C@H]1C[C@@H]2CC[C@@H](C)[C@@](O)(O2)C(=O)C(=O)N2CCCC[C@H]2C(=O)O[C@H]([C@H](C)C[C@@H]2CC[C@@H](O)[C@H](OC)C2)CC(=O)[C@H](C)/C=C(\C)[C@@H](O)[C@@H](OC)C(=O)[C@H](C)C[C@H](C)/C=C/C=C/C=C/1C [rapamycin]
[1]; LCSC6, GT11 0.5 μM plus SA 2 μM plus Rapamycin 10 nM, 48 h
  effect on the toxic effects of the SA/GT11 combination (cell viability): significantly potentiated
[3]
  effect on the toxic effects of the SA/GT11 combination (cell viability): significantly potentiated
[2]; CSC7, GT11 0.5 μM plus SA 2 μM plus Rapamycin 10 nM, 48 h
  effect on the toxic effects of the SA/GT11 combination (cell viability): significantly potentiated

## CCCCCCCCCCCCCCCC(=O)NC(CN1CCOCC1)C(O)c1ccccc1 (stereo not shown) [PPMP, 1-phenyl-2-palmitoylamino-3-morpholino-1-propanol]
[1]; LCSC6, PPMP 10 μM plus NanoFEN 4.9 μM, 48 h
  effect on NanoFEN-induced death (cell viability): unable to block
[2]; CSC7, PPMP 10 μM plus NanoFEN 0.2 μM, 48 h
  effect on NanoFEN-induced death (cell viability): unable to block

## CC(=O)N[C@@H](CS)C(=O)O [NAC, N-Acetyl-L-Cysteine]
[1]; LCSC6 pretreated with NAC 2 mM for 1 h, then NanoFEN 4.9 μM, 48 h
  effect on NanoFEN-induced death (cell viability): partially rescued
[2]; CSC7 pretreated with NAC 2 mM for 1 h, then NanoFEN 0.2 μM, 48 h
  effect on NanoFEN-induced death (cell viability): partially rescued
[4]
  ROS levels in NanoFEN-treated cells after pretreatment: reduced

## CCCCCCCCCCCCCCC[C@@H](O)[C@@H](N)CO [SA, sphinganine]
[1]; LCSC6, 48 hours, SA 2, 4, 6 µM, GT11 0,5, 2, 5 µM
  cell viability: dose-dependent viability decrease

## Nc1ccn([C@@H]2O[C@H](CO)[C@@H](O)C2(F)F)c(=O)n1 [Gem, gemcitabine]
[5]
  ALDH+: 74,6%

## COC(=O)C[C@H](NC(=O)[C@H](C)NC(=O)[C@@H](NC(=O)OCc1ccccc1)C(C)C)C(=O)CF (racemic) [zVAD-fmk, z-Val-Ala-DL-Asp-fluoromethylketone]
[1]; LCSC6 pretreated with zVAD 40 μΜ, then NanoFEN 4.9 μM, 48 h
  effect on NanoFEN-induced toxicity (cell viability): did not substantially inhibit
[2]; CSC7 pretreated with zVAD 40 μΜ, then NanoFEN 0.2 μM, 48 h
  effect on NanoFEN-induced toxicity (cell viability): did not substantially inhibit

## CCCCCCC(=O)CCCCCC/C=C/C[C@@H](O)[C@H](O)[C@@](N)(CO)C(=O)O [myriocin]
[1]; LCSC6, Myriocin 1 μM plus NanoFEN 4.9 μM, 48 h
  effect on NanoFEN-induced death (cell viability): partially protected
[2]; CSC7, Myriocin 1 μM plus NanoFEN 0.2 μM, 48 h
  effect on NanoFEN-induced death (cell viability): partially protected

Reference: article PMC6646369, “A new bioavailable fenretinide formulation with antiproliferative, antimetabolic, and cytotoxic effects on solid tumors” (Cell Death & Disease, 2019)
